Laboratory results: US5393743A, “Erythromycin derivatives” (Abbott Laboratories, priority 1993, dated 1995)

Legend:
[1] = tested on: Mycobacterium smegmatis ATCC 114; assay: In vitro antibacterial activity, agar dilution MIC; format: cell-based; settings: Mycolicibacterium smegmatis, ATCC114, BHI agar, 35°-37° C., 20 to 24 hours
[2] = tested on: Staphylococcus aureus ATCC 6538P; assay: In vitro antibacterial activity, agar dilution MIC; format: cell-based; settings: Staphylococcus aureus, ATCC6538P
Experimental: (§1) Representative compounds of the present invention were assayed in vitro for antibacterial activity as follows: Twelve petri dishes containing successive aqueous dilutions of the test compound mixed with 10 mL of sterilized Brain Heart Infusion (BHI) agar (Difco 0418-01-5) were prepared. Each plate was inoculated with 1:100 (or 1:10 for slow-growing strains, such as Micrococcus and Streptococcus) dilutions of up to 32 different microorganisms, using a Steers replicator block. The inoculated plates were incubated 35°-37° C. for 20 to 24 hours. In addition, a control plate, using BHI agar containing no test compound, was prepared and incubated at the beginning and end of each test.
(§2) An additional plate containing a compound having known susceptibility patterns for the organisms being tested and belonging to the same antibiotic class as the test compound was also prepared and incubated as a further control, as well as to provide test-to-test comparability. Erythromycin A was used for this purpose.
(§3) After incubation, each disk was read. The minimum inhibitory concentration (MIC) was defined as the lowest concentration of drug yielding no growth, a slight haze, or sparsely isolated colonies on the inoculum spot as compared to the growth control.

[3] = tested on: Staphylococcus aureus NCTC 10649; assay: In vitro antibacterial activity, agar dilution MIC; format: cell-based; settings: Staphylococcus aureus, NCTC10649
Experimental: as §1, §2, §3

[4] = tested on: Pseudomonas aeruginosa BMH10; assay: In vitro antibacterial activity, agar dilution MIC; format: cell-based; settings: Pseudomonas aeruginosa BMH10; BHI agar, 35°-37° C., 20 to 24 hours; read-out: MIC
Experimental: as §1, §2, §3

[5] = tested on: Escherichia coli KNK 437; assay: In vitro antibacterial activity, agar dilution MIC; format: cell-based; settings: KNK437; Escherichia coli KNK 437; BHI agar, 35°-37° C., 20 to 24 hours; read-out: MIC
Experimental: as §1, §2, §3

[6] = tested on: Staphylococcus aureus A5278; assay: In vitro antibacterial activity, agar dilution MIC; format: cell-based; settings: Staphylococcus aureus A5278; BHI agar, 35°-37° C., 20 to 24 hours; read-out: MIC
Experimental: as §1, §2, §3

[7] = tested on: Staphylococcus aureus 1775 Cipro R; assay: In vitro antibacterial activity, agar dilution MIC; format: cell-based; settings: 1775CIPROR; Staphylococcus aureus 1775 Cipro R; BHI agar, 35°-37° C., 20 to 24 hours; read-out: MIC
Experimental: as §1, §2, §3

[8] = tested on: Enterococcus faecium ATCC 8043; assay: In vitro antibacterial activity, agar dilution MIC; format: cell-based; settings: Enterococcus faecium, ATCC8043
Experimental: as §1, §2, §3

[9] = tested on: Escherichia coli Juhl; assay: In vitro antibacterial activity, agar dilution MIC; format: cell-based; settings: Escherichia coli Juhl; BHI agar, 35°-37° C., 20 to 24 hours; read-out: MIC
Experimental: as §1, §2, §3

[10] = tested on: Staphylococcus aureus CMX 642a; assay: In vitro antibacterial activity, agar dilution MIC; format: cell-based; settings: Staphylococcus aureus, CMX642A
Experimental: as §1, §2, §3

[11] = tested on: Pseudomonas cepacia 2961; assay: In vitro antibacterial activity, agar dilution MIC; format: cell-based; settings: Burkholderia cepacia; Pseudomonas cepacia 2961; BHI agar, 35°-37° C., 20 to 24 hours; read-out: MIC
Experimental: as §1, §2, §3

[12] = tested on: Streptococcus bovis A5169; assay: In vitro antibacterial activity, agar dilution MIC; format: cell-based; settings: Streptococcus equinus, A5169
Experimental: as §1, §2, §3

[13] = tested on: Pseudomonas aeruginosa 5263; assay: In vitro antibacterial activity, agar dilution MIC; format: cell-based; settings: Pseudomonas aeruginosa 5263; BHI agar, 35°-37° C., 20 to 24 hours; read-out: MIC
Experimental: as §1, §2, §3

[14] = tested on: Streptococcus pyogenes EES61; assay: In vitro antibacterial activity, agar dilution MIC; format: cell-based; settings: Streptococcus pyogenes, EES61
Experimental: as §1, §2, §3

[15] = tested on: Pseudomonas aeruginosa 2862; assay: In vitro antibacterial activity, agar dilution MIC; format: cell-based; settings: Pseudomonas aeruginosa 2862; BHI agar, 35°-37° C., 20 to 24 hours; read-out: MIC
Experimental: as §1, §2, §3

[16] = tested on: Escherichia coli DC-2; assay: In vitro antibacterial activity, agar dilution MIC; format: cell-based; settings: DC2; Escherichia coli DC-2; BHI agar, 35°-37° C., 20 to 24 hours; read-out: MIC
Experimental: as §1, §2, §3

[17] = tested on: Streptococcus pyogenes 2548 induc; assay: In vitro antibacterial activity, agar dilution MIC; format: cell-based; settings: Streptococcus pyogenes, 2548INDUC
Experimental: as §1, §2, §3

[18] = tested on: Klebsiella pneumoniae ATCC 8045; assay: In vitro antibacterial activity, agar dilution MIC; format: cell-based; settings: ATCC8045; Klebsiella pneumoniae ATCC 8045; BHI agar, 35°-37° C., 20 to 24 hours; read-out: MIC
Experimental: as §1, §2, §3

[19] = tested on: Staphylococcus aureus CMX 553; assay: In vitro antibacterial activity, agar dilution MIC; format: cell-based; settings: Staphylococcus aureus, CMX553
Experimental: as §1, §2, §3

[20] = tested on: Staphylococcus epidermidis 3519; assay: In vitro antibacterial activity, agar dilution MIC; format: cell-based; settings: Staphylococcus epidermidis, 3519
Experimental: as §1, §2, §3

[21] = tested on: Escherichia coli H560; assay: In vitro antibacterial activity, agar dilution MIC; format: cell-based; settings: Escherichia coli H560; BHI agar, 35°-37° C., 20 to 24 hours; read-out: MIC
Experimental: as §1, §2, §3

[22] = tested on: Enterobacter aerogenes ATCC 13048; assay: In vitro antibacterial activity, agar dilution MIC; format: cell-based; settings: Klebsiella aerogenes, ATCC13048; Enterobacter aerogenes ATCC 13048; BHI agar, 35°-37° C., 20 to 24 hours; read-out: MIC
Experimental: as §1, §2, §3

[23] = tested on: Pseudomonas aeruginosa A5007; assay: In vitro antibacterial activity, agar dilution MIC; format: cell-based; settings: Pseudomonas aeruginosa A5007; BHI agar, 35°-37° C., 20 to 24 hours; read-out: MIC
Experimental: as §1, §2, §3

[24] = tested on: Providencia stuartii CMX 640; assay: In vitro antibacterial activity, agar dilution MIC; format: cell-based; settings: CMX640; Providencia stuartii CMX 640; BHI agar, 35°-37° C., 20 to 24 hours; read-out: MIC
Experimental: as §1, §2, §3

[25] = tested on: Staphylococcus aureus A5177; assay: In vitro antibacterial activity, agar dilution MIC; format: cell-based; settings: Staphylococcus aureus A5177; BHI agar, 35°-37° C., 20 to 24 hours; read-out: MIC
Experimental: as §1, §2, §3

[26] = tested on: Acinetobacter calcoaceticus CMX 669; assay: In vitro antibacterial activity, agar dilution MIC; format: cell-based; settings: CMX669; Acinetobacter calcoaceticus CMX 669; BHI agar, 35°-37° C., 20 to 24 hours; read-out: MIC
Experimental: as §1, §2, §3

[27] = tested on: Pseudomonas aeruginosa K799/WT; assay: In vitro antibacterial activity, agar dilution MIC; format: cell-based; settings: Pseudomonas aeruginosa K799/WT; BHI agar, 35°-37° C., 20 to 24 hours; read-out: MIC
Experimental: as §1, §2, §3

[28] = tested on: Streptococcus pyogenes 930 const; assay: In vitro antibacterial activity, agar dilution MIC; format: cell-based; settings: Streptococcus pyogenes 930 const; BHI agar, 35°-37° C., 20 to 24 hours; read-out: MIC
Experimental: as §1, §2, §3

[29] = tested on: Micrococcus luteus 4698; assay: In vitro antibacterial activity, agar dilution MIC; format: cell-based; settings: Micrococcus luteus, 4698
Experimental: as §1, §2, §3

[30] = tested on: Streptococcus agalactiae 508; assay: In vitro antibacterial activity, agar dilution MIC; format: cell-based; settings: Streptococcus agalactiae, 508
Experimental: as §1, §2, §3

[31] = tested on: Escherichia coli SS; assay: microbe, parasite or virus in culture; settings: Escherichia coli
Experimental: as §1, §2, §3

[32] = tested on: Candida albicans CCH 442; assay: microbe, parasite or virus in culture; settings: CCH442
Experimental: as §1, §2, §3

[33] = tested on: Nocardia asteroides ATCC 9970; assay: microbe, parasite or virus in culture; settings: ATCC9970
Experimental: as §1, §2, §3

[34] = tested on: Micrococcus luteus ATCC 9341; assay: microbe, parasite or virus in culture; settings: Micrococcus luteus, ATCC9341
Experimental: as §1, §2, §3

[35] = tested on: Pseudomonas aeruginosa K799/61; assay: In vitro antibacterial activity, agar dilution MIC; format: cell-based; settings: BHI agar, 35°-37° C., 20 to 24 hours, read-out: MIC

Measured: MIC

CC[C@H]1OC(=O)[C@H](C)[C@@H](O[C@H]2C[C@](C)(F)[C@@H](OC)[C@H](C)O2)[C@H](C)[C@@H](O[C@@H]2O[C@H](C)C[C@H](N(C)C)[C@H]2O)[C@](C)(O)C[C@@H](C)C(=O)[C@H](C)[C@@H](O)[C@]1(C)O [Example 9, (3"s)--3"-Desmethoxy-3"-fluoro-4"-O-methylerythromycin A]
0.2 µg/mL: [12] | [33] | [34]
12.5 µg/mL: [1] | [25]
0.39 µg/mL: [8] | [14] | [29] | [30]
3.1 µg/mL: [17]
50 µg/mL: [35]
1.56 µg/mL: [2] | [3] | [10] | [19] | [20] | [31]
> 100 µg/mL: all other assays above
